# Assay results from patent US5612329A (priority 1995, dated 1997).
# Legend:
# HOP-62 cells = experiment: In vitro cytotoxicity / cell growth inhibition, non-small cell lung cancer; format: cell-based; details: Homo sapiens; HOP-62, non-small cell lung cancer, 48 hr; read-out: log10 G150 (converted)
# Method: (§1) The anti-proliferative activities of the aziridinylpolyamines obtained in Synthesis Examples 1-4 were assessed by determining log10 G150 values against human cancer cell lines using the screening strategy described by Boyd et al, Drug Devel. Res. 34:91-109 (1995).
# (§2) More specifically, the compounds were tested at a minimum of five concentrations at 10-fold dilutions using a 48 hr continuous exposure protocol. Each cell line shown in Table 1 below was inoculated onto microtiter plates. After a pre-incubation period of 24-48 hr at 37° C., the test compounds were added, and the culture was incubated for an additional 48 hr at 37° C. Cell viability or cell growth end-point determinations were performed by fixation of the cells, followed by staining with sulforhodamine B (Monks et al, J. Natl. Cancer Inst., 83:757-766 (1991)).
# HOP-92 cells = experiment: as above; format: cell-based; details: Homo sapiens; HOP-92, non-small cell lung cancer, 48 hr; read-out: log10 G150 (converted)
# Method: as §1, §2
# NCl-H23 cells = experiment: as above; format: cell-based; details: Homo sapiens, 48 hr, read-out: log10 G150 (converted)
# Method: as §1, §2
# NCl-H322M cells = experiment: as above; format: cell-based; details: Homo sapiens, 48 hr, read-out: log10 G150 (converted)
# Method: as §1, §2
# A549/ATCC cells = experiment: as above; format: cell-based; details: Homo sapiens, 48 hr, read-out: log10 G150 (converted)
# Method: as §1, §2
# NCl-H460 cells = experiment: as above; format: cell-based; details: Homo sapiens, 48 hr, read-out: log10 G150 (converted)
# Method: as §1, §2
# EKVX cells = experiment: as above; format: cell-based; details: Homo sapiens, 48 hr, read-out: log10 G150 (converted)
# Method: as §1, §2
# NCl-H522 cells = experiment: as above; format: cell-based; details: Homo sapiens, 48 hr, read-out: log10 G150 (converted)
# Method: as §1, §2
# NCl-H226 cells = experiment: as above; format: cell-based; details: Homo sapiens, 48 hr, read-out: log10 G150 (converted)
# Method: as §1, §2
# pBR322 DNA = format: biochemical; details: 37° C., 18 hr, pH 7.4
# SNB-75 cells = experiment: In vitro cytotoxicity / cell growth inhibition, CNS cancer; format: cell-based; details: Homo sapiens; SNB-75, CNS cancer, 48 hr; read-out: log10 G150 (converted)
# Method: as §1, §2
# SF-268 cells = experiment: as above; format: cell-based; details: Homo sapiens; SF-268, CNS cancer, 48 hr; read-out: log10 G150 (converted)
# Method: as §1, §2
# SF-539 cells = experiment: as above; format: cell-based; details: Homo sapiens; SF-539, CNS cancer, 48 hr; read-out: log10 G150 (converted)
# Method: as §1, §2
# SNB-19 cells = experiment: as above; format: cell-based; details: Homo sapiens; SNB-19, CNS cancer, 48 hr; read-out: log10 G150 (converted)
# Method: as §1, §2
# SF-295 cells = experiment: as above; format: cell-based; details: Homo sapiens; SF-295, CNS cancer, 48 hr; read-out: log10 G150 (converted)
# Method: as §1, §2
# U251 cells = experiment: as above; format: cell-based; details: Homo sapiens, U-251, 48 hr, read-out: log10 G150 (converted)
# Method: as §1, §2
# HL-60 (TB) cells = experiment: cells; format: cell-based; details: Homo sapiens, leukemia, 48 hr, read-out: log10 G150 (converted)
# CAKI-1 cells = experiment: In vitro cytotoxicity / cell growth inhibition, renal cancer; format: cell-based; details: Homo sapiens; CAKI-1, renal cancer, 48 hr; read-out: log10 G150 (converted)
# Method: as §1, §2
# TK-10 cells = experiment: as above; format: cell-based; details: Homo sapiens; TK-10, renal cancer, 48 hr; read-out: log10 G150 (converted)
# Method: as §1, §2
# 786-0 cells = experiment: as above; format: cell-based; details: Homo sapiens; 786-0, renal cancer, 48 hr; read-out: log10 G150 (converted)
# Method: as §1, §2
# UO-31 cells = experiment: as above; format: cell-based; details: Homo sapiens; UO-31, renal cancer, 48 hr; read-out: log10 G150 (converted)
# Method: as §1, §2
# ACHN cells = experiment: as above; format: cell-based; details: Homo sapiens, 48 hr, read-out: log10 G150 (converted)
# Method: as §1, §2
# RXF-393 cells = experiment: as above; format: cell-based; details: Homo sapiens; RXF-393, renal cancer, 48 hr; read-out: log10 G150 (converted)
# Method: as §1, §2
# SN12C cells = experiment: as above; format: cell-based; details: Homo sapiens, 48 hr, read-out: log10 G150 (converted)
# Method: as §1, §2
# A498 cells = experiment: as above; format: cell-based; details: Homo sapiens, 48 hr, read-out: log10 G150 (converted)
# Method: as §1, §2
# CCRF-CEN cells = experiment: In vitro cytotoxicity / cell growth inhibition, leukemia; format: cell-based; details: Homo sapiens, 48 hr, read-out: log10 G150 (converted)
# Method: as §1, §2
# RPMI-8226 cells = experiment: as above; format: cell-based; details: Homo sapiens; RPMI-8226, leukemia, 48 hr; read-out: log10 G150 (converted)
# Method: as §1, §2
# MOLT-4 cells = experiment: as above; format: cell-based; details: Homo sapiens; MOLT-4, leukemia, 48 hr; read-out: log10 G150 (converted)
# Method: as §1, §2
# SR cells = experiment: as above; format: cell-based; details: Homo sapiens, 48 hr, read-out: log10 G150 (converted)
# Method: as §1, §2
# K-562 cells = experiment: as above; format: cell-based; details: Homo sapiens, K562; K-562, leukemia, 48 hr; read-out: log10 G150 (converted)
# Method: as §1, §2
structure (smiles),measurement,setting,value
"C(CCNCCCN1CC1)CNCCCN1CC1 [Synthesis Example 1, 1,12-Diaziridinyl-4,9-diazadodecane]",GI50,HOP-62 cells,58.9 nM
same,GI50,HOP-92 cells,219 nM
same,GI50,NCl-H23 cells,263 nM
same,GI50,NCl-H322M cells,4570 nM
same,GI50,A549/ATCC cells,891 nM
same,GI50,NCl-H460 cells,363 nM
same,GI50,EKVX cells,3470 nM
same,GI50,NCl-H522 cells,427 nM
same,GI50,NCl-H226 cells,724 nM
same,concentration at which DNA was found to be cross-linked,pBR322 DNA,≤ 0.1 µM
same,GI50,SNB-75 cells,27.5 nM
same,GI50,SF-268 cells,148 nM
same,GI50,SF-539 cells,37.2 nM
same,GI50,SNB-19 cells,1120 nM
same,GI50,SF-295 cells,155 nM
same,GI50,U251 cells,417 nM
same,GI50,HL-60 (TB) cells,35.5 nM
same,GI50,CAKI-1 cells,18.6 nM
same,GI50,TK-10 cells,3240 nM
same,GI50,786-0 cells,11.2 nM
same,GI50,UO-31 cells,575 nM
same,GI50,ACHN cells,141 nM
same,GI50,RXF-393 cells,138 nM
same,GI50,SN12C cells,135 nM
same,GI50,A498 cells,1820 nM
same,GI50,CCRF-CEN cells,63.1 nM
same,GI50,RPMI-8226 cells,5130 nM
same,GI50,MOLT-4 cells,44.7 nM
same,GI50,SR cells,18.2 nM
same,GI50,K-562 cells,4370 nM
